Legend:
C57BL/6J mice = assay: Tolerance induction to T-dependent antigen HEL in mice (anti-HEL titers by ELISA); assay type: in vivo, mouse; details: for antibody suppression with varying amounts of ligand on HEL STALs: end of 44-day experiment, two challenges with immunogenic liposomes on days 15 and 30
Method: Whole blood (50 μL) was collected from mice via a retro-orbital bleed to obtain the serum after centrifugation (17,000 g, 1 min). Serum was aliquoted and stored at −20° C. Liposomes were delivered via the lateral tail vein in a volume of 200 μL. For studies involving a challenge with soluble (non-liposomal) antigen, mice were injected with 200 μg of HEL dissolved in HBSS and delivered intraperitoneally.
Maxisorp plates were coated (0/N, 4° C.) with the relevant protein (50 μL/well, 10 μg/mL) in PBS. NP4-7-BSA in PBS (Biosearch Technologies) was used to look for anti-NP antibodies. The following day, plates were washed twice in TBS-T (0.1% Tween 20) and blocked (1 hr, RT) with TBS-T containing 1% BSA. Serum was initially diluted between 20-10,000-fold and diluted in 2-3 fold serial dilutions eight times on the ELISA plate. Plates were incubated (1 hr, 37° C.) with serum (50 μL/well), washed four times, and incubated (1 hr, 37° C.) with the appropriate HRP-conjugated secondary antibodies (1:2000, Santa Cruz Biotechnologies). Following five washes, plates were developed (RT, 15 min) in 75 μL/well of TMB substrate (Thermo Fisher) and quenched with 75 μL/well of 2N H2SO4. Absorbance was measured at 450 nm and the endpoint titer was calculated as the dilution of serum that produced an absorbance 2-fold above background.
All liposomes were composed of a 60:35:5 molar ratio of distearoyl phosphatidylcholine (DSPC; Avanti Polar Lipids), cholesterol (Sigma), and pegylated lipids. The total mol % of pegylated lipids was always kept at 5%; made up of the appropriate combination of polyethyleneglycol(PEG2000)-distearoyl phosphoethanolamine (PEG-DSPE; Avanti Polar Lipids), ^BPANeuGc-PEG2000-DSPE, ^BPCNeuAc-PEG2000-DSPE, NP-PEG2000-DSPE or Protein-PEG2000-DSPE. […] The diameter of the liposomes were measured on a zetasizer (Malvern) and were consistently in the range of 100-130±30 nm. […]

murine CD22 = biological target: T1, murine CD22 (Mus musculus, UniProt P35329); details: higher affinity than natural ligand; cited from earlier work
T1 sequence (P35329 22-868): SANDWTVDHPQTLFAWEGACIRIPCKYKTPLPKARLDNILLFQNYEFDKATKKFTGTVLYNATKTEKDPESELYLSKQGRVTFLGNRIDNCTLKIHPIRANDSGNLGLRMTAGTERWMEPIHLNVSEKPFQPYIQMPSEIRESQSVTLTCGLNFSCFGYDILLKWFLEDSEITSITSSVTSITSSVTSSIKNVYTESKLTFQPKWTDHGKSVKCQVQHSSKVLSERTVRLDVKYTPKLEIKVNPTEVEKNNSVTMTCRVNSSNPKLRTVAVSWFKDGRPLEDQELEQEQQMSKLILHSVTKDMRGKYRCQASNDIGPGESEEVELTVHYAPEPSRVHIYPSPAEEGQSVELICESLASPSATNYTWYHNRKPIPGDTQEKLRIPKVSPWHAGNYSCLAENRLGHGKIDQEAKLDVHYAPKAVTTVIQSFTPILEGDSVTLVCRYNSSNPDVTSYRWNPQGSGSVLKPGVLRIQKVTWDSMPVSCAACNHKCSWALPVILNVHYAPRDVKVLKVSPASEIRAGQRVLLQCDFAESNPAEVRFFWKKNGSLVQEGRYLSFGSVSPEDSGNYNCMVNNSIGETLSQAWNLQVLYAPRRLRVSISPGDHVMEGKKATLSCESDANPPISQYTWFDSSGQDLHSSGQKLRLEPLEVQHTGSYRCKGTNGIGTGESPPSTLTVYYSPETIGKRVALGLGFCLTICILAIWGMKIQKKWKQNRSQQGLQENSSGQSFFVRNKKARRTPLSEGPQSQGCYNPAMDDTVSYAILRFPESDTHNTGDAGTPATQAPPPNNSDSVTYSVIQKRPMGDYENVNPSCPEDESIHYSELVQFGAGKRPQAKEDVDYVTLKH

Siglec-G = biological target: T2, Siglec-G (Mus musculus, UniProt Q80ZE3); details: cited from earlier work
T2 sequence (Q80ZE3 18-688): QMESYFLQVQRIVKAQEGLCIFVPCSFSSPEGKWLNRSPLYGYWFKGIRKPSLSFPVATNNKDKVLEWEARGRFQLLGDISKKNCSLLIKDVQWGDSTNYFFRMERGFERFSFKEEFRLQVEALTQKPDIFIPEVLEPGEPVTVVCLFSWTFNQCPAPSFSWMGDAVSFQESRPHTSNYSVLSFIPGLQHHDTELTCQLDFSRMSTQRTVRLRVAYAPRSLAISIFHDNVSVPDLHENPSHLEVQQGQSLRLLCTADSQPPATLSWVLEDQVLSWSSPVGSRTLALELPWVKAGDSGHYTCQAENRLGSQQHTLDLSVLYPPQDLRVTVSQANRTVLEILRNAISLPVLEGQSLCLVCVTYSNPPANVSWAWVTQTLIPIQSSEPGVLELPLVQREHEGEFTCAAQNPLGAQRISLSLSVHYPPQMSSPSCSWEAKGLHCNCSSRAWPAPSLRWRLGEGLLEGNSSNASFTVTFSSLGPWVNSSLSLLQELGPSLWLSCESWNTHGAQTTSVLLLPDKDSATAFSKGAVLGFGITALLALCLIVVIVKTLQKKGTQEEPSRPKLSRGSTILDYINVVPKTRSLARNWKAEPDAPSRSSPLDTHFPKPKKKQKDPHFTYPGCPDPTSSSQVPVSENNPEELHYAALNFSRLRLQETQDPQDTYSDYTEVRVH

Compound	antibody suppression with varying amounts of ligand on HEL STALs (C57BL/6J mice)	affinity for murine CD22 relative to its natural ligand (NeuGcα2-6Galβ1-4GlcNAc) (murine CD22) [fold]	difference in EC50 between the two ligands (^BPANeuGc vs NeuGc) on HEL STALs (C57BL/6J mice; antibody suppression titration, FIG. 1E)	cross-reactivity with Siglec-G (Siglec-G)
CC(=O)NC1C(O)OC(CO)C(OC2OC(COC3(C(=O)O)CC(O)C(NC(=O)CO)C(C(O)C(O)CO)O3)C(O)C(O)C2O)C1O (centres unmarked) [NeuGc, NeuGcα2-6Galβ1-4GlcNAc]	dose-dependent effect on antibody suppression			
9-N-biphenylacetyl-NeuGcα2-6Galβ1-4GlcNAc [^BPANeuGc]	dose-dependent effect on antibody suppression	200	two orders of magnitude difference	only a small degree of cross-reactivity

Source: patent US20160060324A1, “Methods and Compositions for Treating Bleeding Disorders” (THE SCRIPPS RESEARCH INSTITUTE, priority 2013, published 2016)
